Laboratory results from US20230303486A1, “CYCLOBUTYL-UREA DERIVATIVES” (Idorsia Pharmaceuticals Ltd, priority 2020, published 2023).
Where two headings read alike, the source gives them in different places.

Key:
[1] = system: primary neuronal cultures from embryonic rat brains; assay: Rat oscillation assay (FLIPR, neuronal calcium oscillations); format: cell-based; details: Rattus norvegicus
Description: This assay is a functional phenotypic assay designed to mimic epileptic seizures using primary neuronal cultures from embryonic rat brains, which form a functional neuronal network that generate synchronized intracellular calcium concentration oscillations when cultured at high density in 384-well plate. The epileptic phenotype is induced by incubating the neurons in magnesium-free assay buffer, that results in increased probability of NMDA receptor activation, leading to an increased frequency and amplitude of intracellular calcium oscillations. Once neurons are incubated with the calcium indicator dye Fluo-8 AM (Tebu-bio), neuronal calcium oscillations can be monitored in real time using FLIPR® Tetra (fluorometric plate reader, Molecular Devices). With these recordings, the effect of anti-epileptic drugs can be quantified. The anti-epileptic effect of compounds, which activate directly or indirectly the Kv7 channels can be modulated by the Kv7 channel blocker XE-991. The assay was performed as described previously (Pacico N, Mingorance-Le Meur A. New In Vitro Phenotypic Assay for Epilepsy: Fluorescent Measurement of Synchronized Neuronal Calcium Oscillations. PLoS ONE 9(1) 2014) with modifications described hereafter.
Animal care followed standard procedures in accordance with swiss institutional guidelines. Dissociated neuronal cultures were obtained from cerebral cortices of embryonic Wistar rats at embryonic stage E18 (Charles River). The uterine horns were removed by caesarian surgery from deeply anesthetized rats (Isofurane) and sacrificed by decapitation. The embryos were decapitated by closing forceps. The brains were isolated and dissected one by one in ice-cold PBS (Life Technologies) under optical control using a binocular. Meninges, olfactory bulbs, and basal ganglia were removed. Cortical hemispheres (still including the hippocampus) were cut in small pieces with tweezers and placed on ice in prechilled Hibernate-E medium (Life technology). The hemispheres were then incubated in 10 mL of Hibernate-E containing 15 U/mL papain (Worthington) for 25 min at 30° C. with gentle mixing every 10 min. Genomic DNA was then digested by prolonging the incubation during 10 min at 37° C. in presence of 4 U/mL rDNase I (Ambion). The obtained suspension was then centrifuged at 800 g for 5 min and the cell pellet was resuspended in 2 mL Hibernate-E and gently dissociated by pipetting up and down 10 times with a plastic Pasteur pipette resulting in a homogenous cell suspension. This suspension was immediately filtered through a 70 µm cell strainer (MACS® SmartStrainer, Miltenyi), collected in 10 mL Hibernate-E and centrifuged at 800 g for 5 min. The cell pellet was resuspended in Neurobasal medium, supplemented with 2% B-27, 0.5 mM Glutamax-I, 100 U/mL penicillin, 100 µg/mL streptomycin (Life Technologies) and diluted at the final concentration of 300′000 cells/mL. One day before plating the cells, 384-well plates were coated with 25 µL/well of 0.1 % poly-L-lysine solution (Sigma), incubated overnight at 37° C., washed two times with sterile distilled water and allowed to dry at room temperature for >2 h. The neurons were seeded at a density of 15′000 cells/well in 50 µL/well in a 384-well black, clear-bottomed plates (Corning) and subsequently maintained in an incubator at 37° C., 5% CO2 and 95% humidity for 8 to 10 days. After 3 and 7 days, 40% of media was renewed under sterile conditions.
Neurons seeded in the assay plates were washed with Hank’s balanced salt solution (HBSS) devoid of Ca^2+ and Mg^2+, supplemented with 20 mM HEPES (Life Technologies) and 2 mM CaCl2 (Sigma), pH 7.4 (hereafter called Assay buffer) using a Biotek EL406 plate washer. Neurons were loaded with 1 µM Fluo-8 AM in Assay buffer for 15 min at 37° C., 5% CO2. […]

[2] = system: audiogenic generalized convulsive seizures in DBA/2J mice; assay: Audiogenic seizure-sensitive mouse model of generalized convulsive seizures; format: in vivo; details: 30 mg/kg po, challenge 1h
Description: Compounds were formulated in a 10% polyethylene glycol 400 (PEG 400) / 90% aqueous solution of 0.5 % methylcellulose (MC 0.5%). Firstly drugs are dissolved in PEG 400 and then suspended in MC 0.5 % for oral gavage at Xmg/5 mL/kg (X see table).
• 1. Procedure: Following two days of acclimatisation, auditory seizures are induced in male juvenile DBA/2J mice (22-24 days old; Janvier Labs, France). Each mouse is placed individually in the exposure chamber, an hemispheric acrylic glass dome (diameter: 50 cm) within a sound-attenuated box. The soundattenuated box is equipped with two house lights and a camera system (Fire-I from Unibrain) in order to observe and record the behavioral seizure response. After 60 seconds of habituation, the stimulus, a mixed frequency tone of 15-20 kHz at 110 dB (SASLab Lite, Avisoft Bioacoustics), is played from a speaker that is placed on the top center of the dome. […] Seizures are classified as following: stage 0, normal behavior; stage 1, wild running; stage 2, generalized clonus; stage 3, tonic extension of the hind limbs. • 2. Compounds testing: Acute compound effects on audiogenic generalized convulsive seizures are evaluated in independent groups of 8-10 mice randomly assigned. Following oral administration of compound or vehicle, the maximum seizure stage during sound exposure is assessed. Compounds are given 1 hour before exposure to the stimulus. Each mouse is exposed to the auditory stimulus only once and euthanized afterwards by CO2 inhalation.

[3] = 20 min, 20 min after compound addition, AUC of fluorescence, read-out: FLIPR: IC50 [nM] 20 min
[4] = Cortical neurone, acute phase, ratio of AUC fluorescence before and after compound addition, rat cortical neurons, Mg-free buffer, read-out: FLIPR: IC50 [nM] acute

| SMILES | IC50 [1, 3] [nM] | IC50 [1, 4] [nM] | Seizure stage [% vs. vehicle] [2] [% vs. vehicle] |
| --- | --- | --- | --- |
| O=C(NCc1cccc(OCC(F)(F)F)c1)NC12CC(F)(C1)C2 [Example 17, 1-(3-Fluoro-Bicyclo[1.1.1]Pent-1-yl)-3-[3-(2,2,2-Trifluoro-Ethoxy)-Benzyl]-Urea] | 239 | 202 |  |
| O=C(NCc1cccc(OCC(F)(F)F)c1)NC1CC(C(F)F)C1 (centres unmarked) [Example 18, 1-(3-Difluoromethyl-cyclobutyl)-3-[3-(2,2,2-trifluoro-ethoxy)-benzyl]-urea] | 1080 | 377 |  |
| O=C(NCc1cccc(OCC(F)(F)F)c1)NC12CC(C(F)(F)F)(C1)C2 [Example 19, 1-[3-(2,2,2-Trifluoro-ethoxy)-benzyl]-3-(3-trifluoromethyl-bicyclo[1.1.1]pent-1-yl)-urea] | 111 | 50 |  |
| O=C(NCc1cccc(OC(F)F)c1)NC12CC(F)(C1)C2 [Example 20, 1-(3-Difluoromethoxy-Benzyl)-3-(3-Fluoro-Bicyclo[1.1.1]Pent-1-yl)-Urea] | 467 | 566 |  |
| O=C(NCc1cccc(OC(F)F)c1)NC1CC(C(F)F)C1 (centres unmarked) [Example 21, 1-(3-Difluoromethoxy-benzyl)-3-(3-difluoromethyl-cyclobutyl)-urea] | 942 | 373 |  |
| O=C(NCc1cccc(OC(F)F)c1)NC12CC(C(F)(F)F)(C1)C2 [Example 22, 1-(3-Difluoromethoxy-benzyl)-3-(3-trifluoromethyl-bicyclo[1.1.1]pent-1-yl)-urea] | 311 | 134 |  |
| O=C(NCc1cccc(OC(F)(F)F)c1)NC12CC(C(F)(F)F)(C1)C2 [Example 23, 1-(3-Trifluoromethoxy-Benzyl)-3-(3-Trifluoromethyl-Bicyclo[1.1.1]Pent-1-yl)-Urea] | 53 | 75 | -85 |
| O=C(NCc1cccc(OC(F)(F)F)c1)NC1CC(C(F)F)C1 (centres unmarked) [Example 25, 1-(3-Difluoromethyl-cyclobutyl)-3-(3-trifluoromethoxy-benzyl)-urea] | 610 | 235 |  |
| O=C(NCc1cccc(OC(F)(F)F)c1)NC12CC(C1)C2 [Example 26, 1-Bicyclo[1.1.1]pent-1-yl-3-(3-trifluoromethoxy-benzyl)-urea] | 315 | 295 |  |
| O=C(NCc1cccc(C(F)F)c1)NC1CC(C(F)F)C1 (centres unmarked) [Example 27, 1-(3-Difluoromethyl-Benzyl)-3-(3-Difluoromethyl-Cyclobutyl)-Urea] | 1730 | 1340 |  |
| O=C(NCc1cccc(C(F)F)c1)NC12CC(C(F)(F)F)(C1)C2 [Example 28, 1-(3-Difluoromethyl-Benzyl)-3-(3-Trifluoromethyl-Bicyclo[1.1.1]Pent-1-yl)-urea] | 203 | 117 |  |
| O=C(NCc1ccnc(OC(F)(F)F)c1)NC1CC(C(F)F)C1 (centres unmarked) [Example 29, 1-(3-Difluoromethyl-Cyclobutyl)-3-(2-Trifluoromethoxy-Pyridin-4-Ylmethyl)-Urea] | 2150 | 367 |  |
| O=C(NCc1ccnc(OC(F)(F)F)c1)NC12CC(C(F)(F)F)(C1)C2 [Example 30, 1-(2-Trifluoromethoxy-Pyridin-4-Ylmethyl)-3-(3-Trifluoromethyl-Bicyclo[1.1.1]Pent-1-yl)-Urea] | 1480 | 804 |  |
| O=C(NCc1cccc(C(F)(F)F)c1)NC12CC(C1)C2 [Example 35, 1-Bicyclo[1.1.1]Pent-1-yl-3-(3-Trifluoromethyl-Benzyl)-Urea] | 717 | 231 |  |
| O=C(NCc1cccc(C(F)(F)F)c1)NC12CC(F)(C1)C2 [Example 36, 1-(3-Fluoro-bicyclo[1.1.1]pent-1-yl)-3-(3-trifluoromethyl-benzyl)-urea] | 344 | 245 |  |
| O=C(NCc1cccc(C(F)(F)F)c1)NC1CC(C(F)F)C1 (centres unmarked) [Example 38, 1-(3-Difluoromethyl-cyclobutyl)-3-(3-trifluoromethyl-benzyl)-urea] | 390 | 135 |  |
| CC12CC(NC(=O)NCc3cccc(C(F)(F)F)c3)(C1)C2 [Example 39, 1-(3-Methyl-bicyclo[1.1.1]pent-1-yl)-3-(3-trifluoromethyl-benzyl)-urea] | 68 | 41 |  |
| O=C(NCc1cccc(C(F)(F)F)c1)NC12CC(CF)(C1)C2 [Example 40, 1-(3-Fluoromethyl-bicyclo[1.1.1]pent-1-yl)-3-(3-trifluoromethyl-benzyl)-urea] | 248 | 149 |  |
| O=C(NCc1cccc(C(F)(F)F)c1)NC1CC(C(F)(F)F)C1 (centres unmarked) [Example 41, 1-(3-Trifluoromethyl-benzyl)-3-(3-trifluoromethyl-cyclobutyl)-urea] | 117 | 73 |  |
| O=C(NCc1cccc(C(F)(F)F)c1)NC1CC(O)(C(F)(F)F)C1 (centres unmarked) [Example 42, 1-(3-Hydroxy-3-trifluoromethyl-cyclobutyl)-3-(3-trifluoromethyl-benzyl)-urea] | 1920 | 1170 |  |
| O=C(NCc1ccnc(OCC(F)(F)F)c1)NC12CC(C1)C2 [Example 43, 1-Bicyclo[1.1.1]Pent-1-yl-3-[2-(2,2,2-Trifluoro-Ethoxy)-Pyridin-4-Ylmethyl]-Urea] | 967 | 578 |  |
| O=C(NCc1ccnc(OCC(F)(F)F)c1)NC12CC(F)(C1)C2 [Example 44, 1-(3-Fluoro-bicyclo[1.1.1]pent-1-yl)-3-[2-(2,2,2-trifluoro-ethoxy)-pyridin-4-ylmethyl]-urea] | 1350 | 591 |  |
| O=C(NCc1ccnc(OCC(F)(F)F)c1)NC12CC(C(F)(F)F)(C1)C2 [Example 45, 1-[2-(2,2,2-Trifluoro-ethoxy)-pyridin-4-ylmethyl]-3-(3-trifluoromethyl-bicyclo[1.1.1]pent-1-yl)-urea] | 701 | 131 |  |
| O=C(NCc1ccnc(OCC(F)(F)F)c1)NC1CC(C(F)F)C1 (centres unmarked) [Example 46, 1-(3-Difluoromethyl-cyclobutyl)-3-[2-(2,2,2-trifluoro-ethoxy)-pyridin-4-ylmethyl]-urea] | 257 | 148 |  |
| O=C(NCc1cccc(C(F)(F)F)c1)NC12CCC(C1)C2 [Example 48, 1-Bicyclo[2.1.1]Hex-1-yl-3-(3-Trifluoromethyl-Benzyl)-Urea] | 484 | 232 |  |
| CC1(NC(=O)NCc2cccc(C(F)(F)F)c2)CC(F)(F)C1 [Example 49, 1-(3,3-Difluoro-1-Methyl-Cyclobutyl)-3-(3-Trifluoromethyl-Benzyl)-Urea] | 628 | 247 |  |
